Source: patent US10508120B2, “TYK2 inhibitors and uses thereof” (Nimbus Lakshmi, Inc., priority 2017, dated 2019)

Tests used:
[1] = target: human TYK2 (JH2domain-pseudokinase) (Homo sapiens (Human), UniProt P29597); assay: TYK2 JH2 Domain Binding Assay (KINOMEscan)
In short: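 The construct was human TYK2 G556–D888 fused to the NFkB DNA-binding domain and expressed in HEK293 cells; unpurified extract was incubated with compound and liganded beads for 1 hour at room temperature.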

Tyk2 kinase domain (DH1) = Tyk2 kinase domain (DH1) (Homo sapiens (Human), UniProt P29597); assay: Tyk2 Radioactive Kinase Assay; format: biochemical; conditions: compound at 10 μM, ATP 10 μM; for inhibition at 10 µM: read-out: Tyk2 JH1% Inhibition @ 10 μM
Sequence of Tyk2 kinase domain (DH1) (P29597 897-1176): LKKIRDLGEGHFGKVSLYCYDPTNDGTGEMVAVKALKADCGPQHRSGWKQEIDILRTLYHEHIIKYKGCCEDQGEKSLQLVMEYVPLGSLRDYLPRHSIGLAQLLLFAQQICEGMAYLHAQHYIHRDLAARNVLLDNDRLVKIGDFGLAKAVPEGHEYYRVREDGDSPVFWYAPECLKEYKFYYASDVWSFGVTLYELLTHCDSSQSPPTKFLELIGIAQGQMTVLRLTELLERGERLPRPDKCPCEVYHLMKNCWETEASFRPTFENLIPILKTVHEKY
In short: (§1)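 Each kinase domain is incubated with test compound at 10 μM. Activity is then measured radiometrically and expressed as percent inhibition relative to uninhibited enzyme.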

JAK2 kinase domain (JH1) = JAK2 kinase domain (JH1) (Homo sapiens (Human), UniProt O60674); assay: JAK2 Radioactive Kinase Assay; format: biochemical; conditions: compound at 10 μM, ATP 10 μM; for inhibition at 10 µM: read-out: JAK2 JH1% Inhibition @ 10 μM
Sequence of JAK2 kinase domain (JH1) (O60674 849-1124): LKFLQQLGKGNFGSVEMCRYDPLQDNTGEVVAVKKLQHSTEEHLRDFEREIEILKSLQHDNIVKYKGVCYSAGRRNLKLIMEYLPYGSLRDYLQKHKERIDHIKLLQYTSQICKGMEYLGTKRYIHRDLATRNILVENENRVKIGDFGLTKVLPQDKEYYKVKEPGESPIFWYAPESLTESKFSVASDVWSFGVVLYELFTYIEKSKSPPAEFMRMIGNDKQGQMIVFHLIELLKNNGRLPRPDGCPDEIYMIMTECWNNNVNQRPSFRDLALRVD
In short: as §1

[2] = target: Tyk2/JAK2 (heterodimeric complex) (Homo sapiens (Human), UniProt P29597); assay: IL-12 Induced pSTAT4 in Human PBMC; format: cell-based; conditions: 1.7 ng/mL IL-12
Sequence of Tyk2/JAK2 (heterodimeric complex) (P29597 whole entry, other chains not shown): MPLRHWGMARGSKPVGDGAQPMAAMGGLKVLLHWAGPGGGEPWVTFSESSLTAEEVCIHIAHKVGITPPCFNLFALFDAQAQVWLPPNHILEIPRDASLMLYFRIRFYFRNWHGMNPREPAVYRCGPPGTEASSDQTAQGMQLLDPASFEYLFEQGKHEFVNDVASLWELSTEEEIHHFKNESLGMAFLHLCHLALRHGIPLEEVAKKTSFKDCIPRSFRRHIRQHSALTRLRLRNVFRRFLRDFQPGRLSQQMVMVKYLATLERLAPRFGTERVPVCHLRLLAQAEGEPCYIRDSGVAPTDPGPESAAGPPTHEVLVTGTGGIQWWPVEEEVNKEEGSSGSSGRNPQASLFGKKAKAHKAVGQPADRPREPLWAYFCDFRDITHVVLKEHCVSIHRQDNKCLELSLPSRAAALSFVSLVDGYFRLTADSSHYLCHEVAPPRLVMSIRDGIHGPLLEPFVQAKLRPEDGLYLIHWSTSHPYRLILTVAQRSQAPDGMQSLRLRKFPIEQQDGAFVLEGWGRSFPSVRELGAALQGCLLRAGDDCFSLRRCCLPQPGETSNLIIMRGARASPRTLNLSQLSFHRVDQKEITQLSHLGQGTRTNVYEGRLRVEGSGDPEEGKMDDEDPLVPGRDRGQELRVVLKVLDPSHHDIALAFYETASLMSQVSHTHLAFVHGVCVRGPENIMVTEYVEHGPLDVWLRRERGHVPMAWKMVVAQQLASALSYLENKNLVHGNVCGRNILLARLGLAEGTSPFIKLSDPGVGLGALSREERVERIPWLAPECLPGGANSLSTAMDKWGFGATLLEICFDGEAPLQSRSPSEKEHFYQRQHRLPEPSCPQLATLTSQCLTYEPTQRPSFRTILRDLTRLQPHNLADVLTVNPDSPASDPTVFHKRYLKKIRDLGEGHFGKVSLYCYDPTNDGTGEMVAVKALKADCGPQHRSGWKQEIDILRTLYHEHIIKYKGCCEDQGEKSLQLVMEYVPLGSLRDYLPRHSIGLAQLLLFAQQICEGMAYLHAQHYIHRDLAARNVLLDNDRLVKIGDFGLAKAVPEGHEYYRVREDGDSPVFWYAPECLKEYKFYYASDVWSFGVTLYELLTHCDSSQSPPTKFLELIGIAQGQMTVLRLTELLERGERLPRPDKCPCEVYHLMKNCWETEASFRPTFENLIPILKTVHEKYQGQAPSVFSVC
Source text: The IL-12 Induced pSTAT4 assay evaluates the inhibition of IL-12 induced STAT4 phophorylation mediated by Tyk2/JAK2 (heterodimeric complex).

[3] = target: JAK2/JAK2 homdimeric complex (Homo sapiens (Human), UniProt O60674); assay: GM-CSF Induced pSTAT5 in Human PBMC; format: cell-based; conditions: GM-CSF 5 ng/mL for 20 minutes, pSTAT5 by MSD, read-out: PBMC_GMCSF_pSTAT5 IC50
Sequence of JAK2/JAK2 homdimeric complex (O60674 whole entry): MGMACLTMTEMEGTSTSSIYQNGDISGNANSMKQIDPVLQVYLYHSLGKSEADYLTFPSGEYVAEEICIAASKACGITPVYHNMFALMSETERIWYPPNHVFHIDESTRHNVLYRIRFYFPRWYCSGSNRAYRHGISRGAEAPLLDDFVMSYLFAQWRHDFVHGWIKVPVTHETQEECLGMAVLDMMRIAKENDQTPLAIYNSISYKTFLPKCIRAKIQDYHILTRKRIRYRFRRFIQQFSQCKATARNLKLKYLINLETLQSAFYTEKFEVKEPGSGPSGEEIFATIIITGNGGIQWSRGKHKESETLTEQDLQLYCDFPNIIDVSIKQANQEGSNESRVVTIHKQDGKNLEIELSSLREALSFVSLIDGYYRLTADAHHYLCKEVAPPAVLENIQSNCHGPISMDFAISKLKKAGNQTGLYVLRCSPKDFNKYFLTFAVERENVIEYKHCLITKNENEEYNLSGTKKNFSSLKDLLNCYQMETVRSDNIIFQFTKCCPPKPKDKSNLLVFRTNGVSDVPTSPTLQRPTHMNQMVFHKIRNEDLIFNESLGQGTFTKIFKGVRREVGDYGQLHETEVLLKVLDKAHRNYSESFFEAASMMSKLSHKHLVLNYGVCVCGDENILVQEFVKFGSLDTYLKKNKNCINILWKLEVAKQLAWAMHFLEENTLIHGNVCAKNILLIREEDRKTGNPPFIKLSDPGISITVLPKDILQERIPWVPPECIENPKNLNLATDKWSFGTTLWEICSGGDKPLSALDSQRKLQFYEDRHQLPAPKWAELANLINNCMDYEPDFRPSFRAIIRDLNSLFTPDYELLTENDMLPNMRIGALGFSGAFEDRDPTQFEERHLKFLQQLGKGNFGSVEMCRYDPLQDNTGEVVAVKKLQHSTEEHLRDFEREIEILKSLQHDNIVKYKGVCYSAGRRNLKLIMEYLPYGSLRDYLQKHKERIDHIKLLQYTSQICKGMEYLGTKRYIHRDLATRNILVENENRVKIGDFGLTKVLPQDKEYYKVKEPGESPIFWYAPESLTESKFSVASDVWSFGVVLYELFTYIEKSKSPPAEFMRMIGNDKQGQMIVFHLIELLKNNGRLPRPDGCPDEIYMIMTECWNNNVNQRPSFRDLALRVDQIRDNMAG
Sequence of JAK2/JAK2 homdimeric complex (P32927 17-897 partner): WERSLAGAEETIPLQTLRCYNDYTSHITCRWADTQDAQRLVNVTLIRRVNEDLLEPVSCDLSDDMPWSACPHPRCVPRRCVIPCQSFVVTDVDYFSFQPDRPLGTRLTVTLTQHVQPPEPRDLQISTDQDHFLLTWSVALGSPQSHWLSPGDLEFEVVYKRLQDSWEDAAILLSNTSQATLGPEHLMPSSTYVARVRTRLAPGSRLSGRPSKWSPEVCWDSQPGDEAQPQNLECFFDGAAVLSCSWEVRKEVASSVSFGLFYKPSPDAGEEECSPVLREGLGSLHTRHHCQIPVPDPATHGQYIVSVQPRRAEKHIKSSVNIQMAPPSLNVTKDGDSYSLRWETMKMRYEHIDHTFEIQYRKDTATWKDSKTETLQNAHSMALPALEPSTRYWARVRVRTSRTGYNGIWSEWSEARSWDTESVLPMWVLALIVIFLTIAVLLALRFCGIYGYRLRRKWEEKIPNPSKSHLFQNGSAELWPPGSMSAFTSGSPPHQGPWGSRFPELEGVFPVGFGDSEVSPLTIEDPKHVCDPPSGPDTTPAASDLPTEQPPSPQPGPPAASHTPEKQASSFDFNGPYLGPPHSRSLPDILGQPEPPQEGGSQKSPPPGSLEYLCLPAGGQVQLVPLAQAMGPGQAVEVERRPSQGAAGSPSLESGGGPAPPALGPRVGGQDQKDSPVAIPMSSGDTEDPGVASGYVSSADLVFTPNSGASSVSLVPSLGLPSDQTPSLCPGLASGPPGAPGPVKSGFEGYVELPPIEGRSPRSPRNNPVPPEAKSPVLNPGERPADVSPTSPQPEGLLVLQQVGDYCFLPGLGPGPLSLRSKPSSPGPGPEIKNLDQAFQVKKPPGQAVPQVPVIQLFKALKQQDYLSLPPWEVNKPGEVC

Sequence of human TYK2 (JH2domain-pseudokinase) (P29597 556-888): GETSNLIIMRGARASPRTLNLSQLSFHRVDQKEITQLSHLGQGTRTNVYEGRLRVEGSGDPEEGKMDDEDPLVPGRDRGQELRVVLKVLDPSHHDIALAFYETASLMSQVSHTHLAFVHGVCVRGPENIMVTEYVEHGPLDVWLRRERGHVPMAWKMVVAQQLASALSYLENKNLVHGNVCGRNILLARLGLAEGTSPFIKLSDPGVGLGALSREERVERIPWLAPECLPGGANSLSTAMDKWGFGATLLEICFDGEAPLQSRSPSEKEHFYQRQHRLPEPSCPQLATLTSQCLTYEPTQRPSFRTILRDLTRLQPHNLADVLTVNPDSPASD

Kd [1] [nM] | inhibition at 10 µM (Tyk2 kinase domain (DH1)) [%] | inhibition at 10 µM (JAK2 kinase domain (JH1)) [%] | IC50 [2] [nM] | IC50 [3] [nM] | SMILES | Tyk2 JH1% Inhibition @ 10 μM (Tyk2 kinase domain (DH1)) | JAK2 JH1% Inhibition @ 10 μM (JAK2 kinase domain (JH1))
< 0.2 | < 50 | < 50 | < 100 | > 12500 | CNc1cc(Nc2cc(F)cn(-c3cnn(C)c3)c2=O)nc2c(C(=O)NC3CC3)cnn12 [I-380] | – | –
< 0.2 | < 50 | < 50 | < 100 | > 12500 | CNc1cc(Nc2cc(F)cn(-c3cnn(C)c3)c2=O)nc2c(C(=O)N[C@H]3C[C@H]3F)cnn12 [I-381] | – | –
< 0.2 | < 50 | < 50 | < 100 | > 300 | CNc1cc(Nc2cc(F)cn(-c3cc(C)n(C)n3)c2=O)nc2c(C(=O)NC3CC3)cnn12 [I-384] | – | –
< 0.2 | < 50 | < 50 | < 100 | > 2500 | CNc1cc(Nc2cc(F)cn(-c3cc(C)n(C)n3)c2=O)nc2c(C(=O)N[C@H]3C[C@H]3F)cnn12 [I-385] | – | –
< 0.2 | < 50 | < 50 | < 100 | > 50000 | CNc1cc(Nc2cccn(-c3nc(C)co3)c2=O)nc2c(C(=O)NC3CCC3)cnn12 [I-386] | – | –
< 0.2 | < 50 | < 50 | < 100 | > 50000 | CNc1cc(Nc2cccnc2OC)nc2c(C(=O)NC3CCC3O)cnn12 (stereo not drawn) [I-390, N-(2-hydroxycyclobutyl)-5-((2-methoxypyridin-3-yl)amino)-7-(methylamino) pyrazolo[1,5-a]pyrimidine-3-carboxamide] | – | –
< 0.2 | < 50 | < 50 | < 100 | > 50000 | CNc1cc(Nc2cccnc2OC2CC2)nc2c(C(=O)NC3CCC3O)cnn12 (stereo not drawn) [I-392, 5-((2-cyclopropoxypyridin-3-yl)amino)-N-(2-hydroxycyclobutyl)-7-(methylamino)pyrazolo[1,5-a]pyrimidine-3-carboxamide] | – | –
< 0.2 | < 50 | < 50 | < 100 | > 12500 | CNc1cc(Nc2cccn(C3CCC4(CC3)OCCO4)c2=O)nc2c(C(=O)NC3CC3)cnn12 [I-393] | – | –
< 0.2 | – | – | < 100 | > 12500 | CNc1cc(Nc2cccnc2OC)nc2c(C(=O)N[C@H]3CC[C@@H]3O)cnn12 [I-395] | A (percent inhibition at 10 μM lower than 50) | A (percent inhibition at 10 μM lower than 50)
< 0.2 | < 50 | < 50 | < 100 | > 50000 | CNc1cc(Nc2cccnc2OC)nc2c(C(=O)N[C@@H]3CC[C@H]3O)cnn12 [I-396] | – | –
< 0.2 | < 50 | < 50 | < 100 | > 12500 | CNc1cc(Nc2cccnc2OC2CC2)nc2c(C(=O)N[C@@H]3CC[C@@H]3O)cnn12 [I-401] | – | –
< 0.2 | < 50 | < 50 | 100 to 500 | > 12500 | CNc1cc(Nc2cccn(-c3cnn(CC4CCOCC4)c3)c2=O)nc2c(C(=O)NC3CC3)cnn12 [I-406] | – | –
< 0.2 | < 50 | < 50 | < 100 | > 12500 | CNc1cc(Nc2cccn(-c3cnn(CC4CCOCC4)c3)c2=O)nc2c(C(=O)N[C@H]3C[C@H]3F)cnn12 [I-407] | – | –
< 0.2 | < 50 | < 50 | < 100 | > 12500 | CCONC(=O)c1cnn2c(NC)cc(Nc3cccnc3OC)nc12 [I-409, N-ethoxy-5-((2-methoxypyridin-3-yl)amino)-7-(methylamino)pyrazolo[1,5-a]pyrimidine-3-carboxamide] | – | –
< 0.2 | < 50 | 50 to 70 | < 100 | > 12500 | [2H]C([2H])([2H])Oc1ncccc1Nc1cc(NC)n2ncc(C(=O)N[C@@H]3CC[C@H]3O)c2n1 [I-410] | – | –
< 0.2 | – | – | < 100 | > 50000 | [2H]C([2H])([2H])Oc1ncccc1Nc1cc(NC)n2ncc(C(=O)N[C@H]3CC[C@@H]3O)c2n1 [I-411] | A (percent inhibition at 10 μM lower than 50) | A (percent inhibition at 10 μM lower than 50)

Kd [1] [nM] | inhibition at 10 µM (Tyk2 kinase domain (DH1)) [%] | inhibition at 10 µM (JAK2 kinase domain (JH1)) [%] | IC50 [2] [nM] | IC50 [3] [nM] | SMILES | Tyk2 JH1% Inhibition @ 10 μM (Tyk2 kinase domain (DH1)) | JAK2 JH1% Inhibition @ 10 μM (JAK2 kinase domain (JH1))
< 0.2 | < 50 | < 50 | < 100 | > 50000 | CNc1cc(Nc2cccn(C[C@@H]3CCCCO3)c2=O)nc2c(C(=O)NC3CC3)cnn12 [I-413] | – | –
< 0.2 | < 50 | < 50 | < 100 | > 50000 | CNc1cc(Nc2cccn(C3CCC4(CC3)OCCO4)c2=O)nc2c(C(=O)N[C@@H]3C[C@@H]3F)cnn12 [I-415, N-((1R,2S)-2-fluorocyclopropyl)-7-(methylamino)-5-((2-oxo-1-(1,4-dioxaspiro 14.51 decan-8-yl)-1,2-dihydropyridin-3-yl)amino)pyrazolo[1,5-a]pyrimidine-3-carboxamide] | – | –
< 0.2 | < 50 | < 50 | < 100 | > 50000 | CNc1cc(Nc2cccnc2OC)nc2c(C(=O)N[C@@H]3CCC[C@H]3O)cnn12 [I-423, N-((1R,2R)-2-hydroxycyclopentyl)-5-((2-methoxypyridin-3-yl)amino)-7-(methylamino)pyrazolo[1,5-a]pyrimidine-3-carboxamide] | – | –
< 0.2 | < 50 | < 50 | < 100 | > 50000 | CNc1cc(Nc2cccnc2OC2CC2)nc2c(C(=O)NCC3(CO)CC3)cnn12 [I-426] | – | –
< 0.2 | < 50 | < 50 | < 100 | > 50000 | CNc1cc(Nc2cccn(C[C@@H]3CCCCO3)c2=O)nc2c(C(=O)N[C@@H]3C[C@@H]3F)cnn12 [I-428] | – | –
< 0.2 | < 50 | < 50 | < 100 | > 50000 | CNc1cc(Nc2cccnc2OC)nc2c(C(=O)N[C@H]3CC[C@H]3O)cnn12 [I-429] | – | –
< 0.2 | < 50 | < 50 | 100 to 500 | > 50000 | CNc1cc(Nc2cccnc2OC2CC2)nc2c(C(=O)NCC(C)CO)cnn12 (stereo not drawn) [I-435] | – | –
< 0.2 | < 50 | < 50 | < 100 | > 50000 | CNc1cc(Nc2cccnc2OC)nc2c(C(=O)N[C@H]3C[C@@H]3O)cnn12 [I-438, N-((1S,2S)-2-hydroxycyclopropyl)-5-((2-methoxypyridin-3-yl)amino)-7-(methylamino)pyrazolo[1,5-a]pyrimidine-3-carboxamide] | – | –
< 0.2 | < 50 | < 50 | < 100 | > 12500 | CNc1cc(Nc2cccn([C@@H]3CCCOC3)c2=O)nc2c(C(=O)N[C@@H]3C[C@@H]3F)cnn12 [I-474] | – | –
< 0.2 | < 50 | < 50 | < 100 | > 50000 | CNc1cc(Nc2cccnc2OC)nc2c(C(=O)NC[C@H](C)CO)cnn12 [I-483] | – | –
< 0.2 | < 50 | < 50 | < 100 | > 50000 | [2H]C([2H])([2H])Oc1ncccc1Nc1cc(NC)n2ncc(C(=O)N[C@@H]3CCC[C@@H](O)C3)c2n1 [I-499] | – | –
< 0.2 | – | – | < 100 | > 50000 | [2H]C([2H])([2H])Oc1ncccc1Nc1cc(NC)n2ncc(C(=O)N[C@H]3CC[C@H](O)C3)c2n1 [I-500] | A (percent inhibition at 10 μM lower than 50) | A (percent inhibition at 10 μM lower than 50)
< 0.2 | < 50 | < 50 | < 100 | > 50000 | CNc1cc(Nc2cccn(-c3ncccc3F)c2=O)nc2c(C(=O)NCC(C)(C)CO)cnn12 [I-510] | – | –
< 0.2 | < 50 | < 50 | < 100 | > 50000 | CNc1cc(Nc2cccn([C@H]3CC[C@H](OC)CC3)c2=O)nc2c(C(=O)N[C@H]3CC[C@H]3O)cnn12 [I-539] | – | –
< 0.2 | < 50 | < 50 | < 100 | > 12500 | CNc1cc(Nc2cccn([C@H]3CC[C@H](OC)CC3)c2=O)nc2c(C(=O)N[C@H]3CC[C@@H]3O)cnn12 [I-540] | – | –
< 0.2 | < 50 | < 50 | < 100 | > 2500 | CNc1cc(Nc2cccn([C@H]3CC[C@H](OC)CC3)c2=O)nc2c(C(=O)NCC(C)(C)CO)cnn12 [I-544] | – | –

SMILES | Kd [1] [nM] | inhibition at 10 µM (Tyk2 kinase domain (DH1)) [%] | inhibition at 10 µM (JAK2 kinase domain (JH1)) [%] | IC50 [2] [nM] | IC50 [3] [nM] | Tyk2 JH1% Inhibition @ 10 μM (Tyk2 kinase domain (DH1)) | JAK2 JH1% Inhibition @ 10 μM (JAK2 kinase domain (JH1))
CNc1cc(Nc2cccnc2OC)nc2c(C(=O)NCC3(CO)CC3)cnn12 [I-425] | < 0.2 | < 50 | < 50 | < 100 | > 50000 | – | –
